# Test results as given in patent publication US7598245B2 (Vertex Pharmaceuticals Incorporated, priority 2003, dated 2009).
# Molecular target: T1, PDK-1 (Homo sapiens, UniProt O15530)
# T1 sequence (O15530 1-556): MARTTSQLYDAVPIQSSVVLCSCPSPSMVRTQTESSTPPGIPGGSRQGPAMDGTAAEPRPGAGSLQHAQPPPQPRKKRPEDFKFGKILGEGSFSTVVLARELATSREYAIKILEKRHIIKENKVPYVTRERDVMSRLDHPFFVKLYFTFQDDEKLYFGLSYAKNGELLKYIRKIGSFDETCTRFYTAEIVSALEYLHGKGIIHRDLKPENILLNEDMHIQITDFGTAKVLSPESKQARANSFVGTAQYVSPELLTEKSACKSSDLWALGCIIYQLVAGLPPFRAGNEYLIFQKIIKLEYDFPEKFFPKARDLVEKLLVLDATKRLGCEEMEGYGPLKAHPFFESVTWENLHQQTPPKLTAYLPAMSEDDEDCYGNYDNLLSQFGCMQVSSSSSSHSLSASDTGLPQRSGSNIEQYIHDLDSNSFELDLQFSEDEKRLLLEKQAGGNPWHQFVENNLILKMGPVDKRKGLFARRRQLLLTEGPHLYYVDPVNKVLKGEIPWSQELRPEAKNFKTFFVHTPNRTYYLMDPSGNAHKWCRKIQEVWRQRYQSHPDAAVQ
# Test: PDK-1 inhibition, radioactive-phosphate incorporation assay
# Type: biochemical
# Details: 40 μM ATP
# Method: Compounds were screened for their ability to inhibit PDK-1 using a radioactive-phosphate incorporation assay (Pitt and Lee, J. Biomol. Screen., (1996) 1, 47). Assays were carried out in a mixture of 100 mM HEPES (pH 7.5), 10 mM MgCl2, 25 mM NaCl, 2 mM DTT. Final substrate concentrations in the assay were 40 μM ATP (Sigma Chemicals) and 65 μM peptide (PDKtide, Upstate, Lake Placid, N.Y.). Assays were carried out at 30° C. and 25 nM PDK-1 in the presence of ˜27.5 nCi/μL of [γ-^32P]ATP (Amersham Pharmacia Biotech, Amersham, UK). An assay stock buffer solution was prepared containing all of the reagents listed above, with the exception of ATP, and the test compound of interest. 15 μl of the stock solution was placed in a 96 well plate followed by addition of 1 μl of 0.5 mM DMSO stock containing the test compound (final compound concentration 25 μM, final DMSO concentration […]). The plate was preincubated for about 10 minutes at 30° C. and the reaction initiated by addition of 4 μl ATP (final concentration 40 μM).
# The reaction was stopped after 10 minutes by the addition of 100 μL 100 mM phosphoric acid, 0.01% Tween-20. A phosphocellulose 96 well plate (Millipore, Cat no. MAPHNOB50) was pretreated with 100 μL 100 mM phosphoric acid, 0.01% Tween-20 prior to the addition of the reaction mixture (100 μL). The spots were left to soak for at least 5 minutes, prior to wash steps (4×200 μL 100 mM phosphoric acid, 0.01% Tween-20). After drying, 20 μL Optiphase ‘SuperMix’ liquid scintillation cocktail (Perkin Elmer) was added to the well prior to scintillation counting (1450 Microbeta Liquid Scintillation Counter, Wallac).
row,Ki [nM],Compound
1,1000 to 10000,COc1cc(Nc2ncn(-c3ccccc3)n2)cc(OC)c1OC [Compound I-42]
2,1000 to 10000,OC[C@H]1CCCN(c2cc(-n3cnc(Nc4ccccc4)n3)ccn2)C1 [Compound I-65]
3,< 1000,CC(=O)N1[C@H](C)CN(c2cc(-n3cnc(Nc4ccccc4)n3)ccn2)C[C@@H]1C [Compound I-74]
4,1000 to 10000,c1ccc(-n2cnc(Nc3ccc(N4CCOCC4)nc3)n2)cc1 [Compound I-134]
